Assay results taken from US7745476B2, “1,3,5-trisubstituted 4,5-dihydro-1H-pyrazole derivatives having CB1-antagonistic activity” (Solvay Pharmaceuticals B.V., priority 2004, dated 2010).

Experiments:
[1] = target: human cannabinoid CB1 receptor (Homo sapiens, UniProt P21554); assay: In vitro affinity for cannabinoid-CB1 receptors ([3H]CP-55,940 radioligand binding, CHO cell membranes); conditions: read-out: In vitro affinity pKi value (converted)
Description: The affinity of the compounds of the invention for cannabinoid CB1 receptors can be determined using membrane preparations of Chinese hamster ovary (CHO) cells in which the human cannabinoid CB1 receptor is stably transfected in conjunction with [^3H]CP-55,940 as radioligand. After incubation of a freshly prepared cell membrane preparation with the [^3H]-ligand, with or without addition of compounds of the invention, separation of bound and free ligand is performed by filtration over glassfiber filters. Radioactivity on the filter is measured by liquid scintillation counting.

human CB1 receptor = human CB1 receptor (Homo sapiens, UniProt P21554); assay: In vitro cannabinoid-CB1 receptor antagonism (WIN 55,212-2-induced [3H]-arachidonic acid release in CHO cells); assay type: cell-based; conditions: 10^−6M
Sequence of human CB1 receptor (P21554 whole entry): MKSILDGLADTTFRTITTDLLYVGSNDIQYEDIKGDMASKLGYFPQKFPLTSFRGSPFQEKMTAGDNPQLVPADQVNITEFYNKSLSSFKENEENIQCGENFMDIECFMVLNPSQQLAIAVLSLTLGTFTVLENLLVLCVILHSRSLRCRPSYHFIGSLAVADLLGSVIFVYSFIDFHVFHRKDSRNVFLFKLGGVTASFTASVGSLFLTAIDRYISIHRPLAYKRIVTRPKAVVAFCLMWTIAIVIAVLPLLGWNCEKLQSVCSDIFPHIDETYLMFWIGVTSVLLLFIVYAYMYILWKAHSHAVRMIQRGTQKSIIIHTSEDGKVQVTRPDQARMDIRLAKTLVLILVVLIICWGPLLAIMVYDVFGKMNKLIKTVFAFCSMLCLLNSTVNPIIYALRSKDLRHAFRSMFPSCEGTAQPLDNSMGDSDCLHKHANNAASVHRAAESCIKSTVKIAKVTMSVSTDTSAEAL
Description: In vitro CB1 receptor antagonism can be assessed with the human CB1 receptor cloned in Chinese hamster ovary (CHO) cells. CHO cells are grown in a Dulbecco's Modified Eagle's medium (DMEM) culture medium, supplemented with 10% heat-inactivated fetal calf serum. Medium is aspirated and replaced by DMEM, without fetal calf serum, but containing [^3H]-arachidonic acid and incubated overnight in a cell culture stove (5% CO2/95% air; 37° C.; water-saturated atmosphere). During this period [^3H]-arachidonic acid is incorporated in membrane phospholipids. On the test day, medium is aspirated and cells are washed three times using 0.5 ml DMEM, containing 0.2% bovine serum albumin (BSA). Stimulation of the CB1 receptor by WIN 55,212-2 leads to activation of PLA2 followed by release of [^3H]-arachidonic acid into the medium. This WIN 55,212-2-induced release is concentration-dependently antagonized by CB1 receptor antagonists.

Sequence of human cannabinoid CB1 receptor (P21554 whole entry): as above

melting point [°C] | Ki [1] [nM] | inhibition at 1 µM (human CB1 receptor) [%] | SMILES
160 to 163.5 |  |  | O=C(NC1CCCCC1)C1=NN(c2ccc(Cl)cc2Cl)C(c2ccccc2)C1 (stereo not shown)
189 to 192 |  |  | O=C(NN1CCCCC1)C1=NN(c2ccc(Cl)cc2)C(c2ccccc2)C1 (stereo not shown) [Compound 1, N-(piperidin-1-yl)-1-(4-chlorophenyl)-5-phenyl-4,5-dihydro-(1H)-pyrazole-3-carboxamide]
163 to 165 | 25.1 | 98 | O=C(NN1CCCCC1)C1=NN(c2ccc(Cl)cc2Cl)C(c2ccccc2)C1 (stereo not shown) [Compound 3, N-(Piperidin-1-yl)-1-(2,4-dichlorophenyl)-5-phenyl-4,5-dihydro-(1H)-pyrazole-3-carboxamide]
200 to 203.5 |  |  | N/C(=N\S(=O)(=O)c1ccc(F)cc1)C1=NN(c2ccc(Cl)cc2)C(c2ccccc2)C1 (stereo not shown) [Compound 5, N-[(4-fluorophenyl)sulfonyl]-1-(4-chlorophenyl)-5-phenyl-4,5-dihydro-(1H)-pyrazole-3-carboxamidine]
167 to 169.5 |  |  | N/C(=N\S(=O)(=O)c1ccc(F)cc1)C1=NN(c2ccc(Cl)cc2Cl)C(c2ccccc2)C1 (stereo not shown) [Compound 6, N-[(4-fluorophenyl)sulfonyl]-1-(2,4-dichlorophenyl)-5-phenyl-4,5-dihydro-(1H)-pyrazole-3-carboxamidine]
 | 79.4 | 79 | CNC(=NS(=O)(=O)N1CCCCC1)C1=NN(c2ccc(Cl)cc2)C(c2ccccc2)C1 (stereo not shown) [Compound 10, N-[(piperidin-1-yl)sulfonyl]-N′-methyl-1-(4-chlorophenyl)-5-phenyl-4,5-dihydro-(1H)-pyrazole-3-carboxamidine]
161 to 165 |  |  | CN/C(=N\S(=O)(=O)N1CCOCC1)C1=NN(c2ccc(Cl)cc2Cl)C(c2ccccc2)C1 (stereo not shown) [Compound 11, N-[(Morpholin-4-yl)sulfonyl]-N′-methyl-1-(2,4-dichlorophenyl)-5-phenyl-4,5-dihydro-(1H)-pyrazole-3-carboxamidine]
